These results are taken from US20150352108A1, “AMINO-PYRIMIDINE COMPOUNDS AS INHIBITORS OF TBK1 AND/OR IKK EPSILON” (Alzheimer's Institute of America, priority 2009, published 2015).

For one assay, the target named is T1, IKKε (Homo sapiens, UniProt Q14164).
T1 construct: His-tag; made in house; host or cells: Sf9 insect cells
T1 sequence (Q14164 1-716): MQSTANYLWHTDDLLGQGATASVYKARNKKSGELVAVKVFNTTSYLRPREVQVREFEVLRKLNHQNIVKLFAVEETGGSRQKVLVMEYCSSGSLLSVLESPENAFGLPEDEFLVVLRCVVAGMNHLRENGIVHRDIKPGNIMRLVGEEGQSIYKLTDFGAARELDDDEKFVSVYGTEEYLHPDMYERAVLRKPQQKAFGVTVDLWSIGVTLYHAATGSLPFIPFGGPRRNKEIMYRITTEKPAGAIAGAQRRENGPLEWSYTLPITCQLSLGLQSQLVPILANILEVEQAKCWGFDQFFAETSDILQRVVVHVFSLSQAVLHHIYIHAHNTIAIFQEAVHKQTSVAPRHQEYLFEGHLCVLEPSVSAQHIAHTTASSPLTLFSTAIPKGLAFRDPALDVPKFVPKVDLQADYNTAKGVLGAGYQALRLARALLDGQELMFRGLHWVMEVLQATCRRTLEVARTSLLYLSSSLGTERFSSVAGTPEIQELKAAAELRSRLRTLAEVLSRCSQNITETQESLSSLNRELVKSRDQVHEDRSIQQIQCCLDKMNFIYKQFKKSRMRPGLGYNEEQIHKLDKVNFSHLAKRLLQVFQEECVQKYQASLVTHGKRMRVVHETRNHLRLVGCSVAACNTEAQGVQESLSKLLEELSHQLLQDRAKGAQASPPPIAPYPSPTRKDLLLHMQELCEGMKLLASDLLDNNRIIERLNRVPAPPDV
Nature of the assay: In-vitro IKKε kinase assay ([γ33]ATP filter-plate). The format is biochemical. The settings on record: text bins; read-out: IC50 for inhibition of the kinase activity of IKKε. The method in brief: (§1)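 His-tagged IKKε and TBK1 from Sf9 cells were assayed with myelin basic protein or casein and [γ33]ATP at 2×Km ATP (32 μM for IKKε, 60 μM for TBK1). Enzyme was 0.1 or 0.015 μg/ml for IKKε and 0.1 or 0.02 μg/ml for TBK1 (normal/sensitized). Reactions ran 30-45 min, were filter-captured, scintillation-counted, and normalized to DMSO after background subtraction.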

Another assay concerns the target T2, TBK1 (Homo sapiens, UniProt Q9UHD2).
T2 construct: His-tag; made in house; host or cells: Sf9 insect cells
T2 sequence (Q9UHD2 1-729): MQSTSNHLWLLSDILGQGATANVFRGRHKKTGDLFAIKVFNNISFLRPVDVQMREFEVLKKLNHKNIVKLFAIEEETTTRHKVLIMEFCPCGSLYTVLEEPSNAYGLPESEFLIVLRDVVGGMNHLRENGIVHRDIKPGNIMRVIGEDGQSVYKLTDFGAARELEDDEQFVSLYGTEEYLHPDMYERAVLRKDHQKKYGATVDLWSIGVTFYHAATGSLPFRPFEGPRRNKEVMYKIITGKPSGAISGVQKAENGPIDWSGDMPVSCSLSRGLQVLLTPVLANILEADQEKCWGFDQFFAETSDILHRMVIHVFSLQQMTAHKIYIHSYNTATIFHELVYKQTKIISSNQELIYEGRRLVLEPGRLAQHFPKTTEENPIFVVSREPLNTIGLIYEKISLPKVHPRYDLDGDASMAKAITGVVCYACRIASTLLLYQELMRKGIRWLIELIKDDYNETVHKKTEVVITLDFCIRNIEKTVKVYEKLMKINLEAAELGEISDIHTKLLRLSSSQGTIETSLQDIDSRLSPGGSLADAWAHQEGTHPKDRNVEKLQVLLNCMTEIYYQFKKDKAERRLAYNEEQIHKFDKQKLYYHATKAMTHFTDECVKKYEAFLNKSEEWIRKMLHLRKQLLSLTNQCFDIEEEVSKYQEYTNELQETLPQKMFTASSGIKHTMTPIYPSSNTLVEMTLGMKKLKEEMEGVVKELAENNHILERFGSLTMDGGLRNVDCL
The assay is described as follows: In-vitro TBK1 kinase assay ([γ33]ATP filter-plate). It is filed as biochemical. The settings on record: text bins; read-out: IC50 for inhibition of the kinase activity of TBK1. The method in brief: as §1

The subject of the next assay is DU4475 cells. Nature of the assay: Cell growth inhibition assay (CellTiter-Glo), DU4475. It is filed as cell-based. The settings on record: Homo sapiens, DU-4475; 3-5 days. The protocol:
DU4475, COLO205, and OPM2 cells were plated in 96-well plates at 5000 cells/well. The following day test compounds (compounds according to Formula I) were added, maintaining the final DMSO solvent concentration at 0.4%. After the desired incubation time (3-5 days), cell number was assayed using the CellTiter-Glo luminescent cell viability assay (Promega, Inc., Madison, Wis.). Viability was expressed as percent DMSO control after background subtraction.
(In general: ATP-based viability assays read luminescence as a measure of living cells.)

Assay [1] has as its system IKKε-mediated phosphorylation of IRF3. Nature of the assay: In-situ phosphorylation of IRF3 (pIRF3 Ser396 ELISA) in HEK293T cells cotransfected with IRF3 and IKKε. It is filed as cell-based. The settings on record: Homo sapiens, HEK-293T; HEK293T cells, 20 hours, text bins; read-out: IC50 for inhibition of the in-situ IKKε-mediated phosphorylation of IRF3. The gist of the method: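 For the IRF3 ELISA, HEK293T cells cotransfected with IRF3 and IKKε were replated at 20,000/well and treated 20 h. Phospho-Ser396 IRF3 was measured by ELISA and normalised to DMSO, with viability checked by CellTiter-Glo. For IRF7, cells transfected with IRF7 and TBK1 were treated overnight, and pSer477/Ser479 IRF7 was detected by Western blot.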
A general note: ELISA stands for enzyme-linked immunosorbent assay.

For assay [2], the system named is IFN-β secretion, RAW264.7 cells. The assay is described as follows: IFN-β secretion by RAW264.7 cells after nucleic acid agonists (ELISA). The settings on record: 100 nM. The format is cell-based, Mouse. An excerpt:
(§2) Mouse RAW264.7 macrophage-like cells provide a model for macrophage function in tissue culture. To investigate the efficacy of compounds according to Formula I in inhibiting nucleic acid cytosolic receptor pathways RAW264.7 cells were pretreated with a compound according to Formula I (Example Compound 471) and then exposed to various single stranded and double stranded RNA and DNA agonists introduced into the cell. To track IKKε/TBK1 signaling pathway activation, RANTES or IFN-β protein secretion was monitored by ELISA-based assays (R & D systems), such as those described above.
RAW264.7 cells were seeded in 96-well culture plates and allowed to grow overnight. The following day, media was replaced and cells were pretreated with 100 nM Example Compound 471 (0.1% final DMSO concentration). […] RANTES (FIG. 5) and IFN-β (FIG. 6) secretion were quantified using ELISA kits (Mouse CCL5/RANTES, R&D Systems, Inc., Minneapolis, Minn. and Mouse IFN-β, Thermo Fisher Scientific, Rockford, Ill.).

Assay [3] deals with RANTES secretion, RAW264.7 cells. The assay is described as follows: RANTES secretion by RAW264.7 cells after nucleic acid agonists (ELISA). Conditions: 100 nM. The format is cell-based, Mouse.
Description: as §2
RAW264.7 cells were seeded in 96-well culture plates and allowed to grow overnight. The following day, media was replaced and cells were pretreated with 100 nM Example Compound 471 (0.1% final DMSO concentration). After one hour cells were transfected with Lipofectime LTX reagent (Invitrogen, Carlsbad, Calif.) and one of the following agonists: low molecular weight Poly(I:C) (InvivoGen, San Diego, Calif.) at 10 μg/ml to activate RIG-I; high molecular weight Poly(I:C) (InvivoGen, San Diego, Calif.) at 10 μg/ml to activate MDA5; Poly(dA:dT) (InvivoGen, San Diego, Calif.) at 1 ug/ml; 45-basepair double stranded interferon stimulatory DNA oligo (ISD) at 10 μg/ml (Stetson and Medzhitov; Recognition of cytosolic DNA activates an IRF3-dependent innate immune response; Immunity, 24:93-103, 2006); ssDNA at 10 μg/ml (InvivoGen, San Diego, Calif.), ssRNA at 0.5 μg/ml (InvivoGen, San Diego, Calif.), or salmon sperm genomic DNA (gDNA) (InvivoGen, San Diego, Calif.) at 10 ug/ml to activate DAI, IFI16, and other cytosolic nucleic acid receptors. RANTES (FIG. 5) and IFN-β (FIG. 6) secretion were quantified using ELISA kits (Mouse CCL5/RANTES, R&D Systems, Inc., Minneapolis, Minn. and Mouse IFN-β, Thermo Fisher Scientific, Rockford, Ill.).

For the compound `COc1cc(NC(=O)CCSC)cc(Nc2nccc(-c3ccc(OC)c(C#N)c3)n2)c1` [compound 339, N-(3-{[4-(3-Cyano-4-methoxyphenyl)pyrimidin-2-yl]amino}-5-methoxyphenyl)-3-(methylsulfanyl) propanamide], the results for the IC50 on IKKε, at TBK1 and in the assay on DU4475 cells were 5 to 50 nM, 10 to 100 nM and ≤ 10 nM, respectively.
For the compound `N#Cc1cc(-c2ccnc(Nc3ccc(N4CCOCC4)cc3)n2)ccc1O[C@@H]1CCN(C(=O)CO)C1` [compound 471, 2-{[(3R)-1-(hydroxyacetyl)pyrrolidin-3-yl]oxy}-5-(2-{[4-(morpholin-4-yl)phenyl]amino}pyrimidin-4-yl)benzonitrile], the IC50 (usually the concentration that inhibits the measured activity by half) in assay [1] was < 100 nM. The half-inhibitory concentration (IC50) at IKKε was < 5 nM. Moreover, the IC50 at TBK1 is < 10 nM. In addition, in assay [2], the “induction of IFN-β secretion by DNA agonists ISD, ssDNA, poly(dA:dT), gDNA” value is on record as “potently inhibited”; the “induction of IFN-β secretion by low and high molecular weight poly(I:C)” value was “modestly inhibited”. Moreover, in assay [3], the “induction of RANTES secretion by DNA agonists ISD, ssDNA, poly(dA:dT), gDNA” value is “potently inhibited”; the “induction of RANTES secretion by low and high molecular weight poly(I:C)” value is recorded as “modestly inhibited”; the “induction of RANTES secretion by ssRNA agonist” value was “potently inhibited”.
Take `COc1ccc(-c2ccnc(Nc3cc(CO)c(OC)c(OC)c3)n2)cc1C#N` [Example 127, 5-(2-{[3-(Hydroxymethyl)-4,5-dimethoxyphenyl]amino}pyrimidin-4-yl)-2-methoxybenzonitrile]: the IC50 at IKKε is < 5 nM; at TBK1 it was < 10 nM; in the assay on DU4475 cells, ≤ 10 nM.
As for `COCCOCC(=O)Nc1cc(Nc2nccc(-c3ccc(OC)c(C#N)c3)n2)cc(OC)c1` [compound 316, N-(3-{[4-(3-Cyano-4-methoxyphenyl)pyrimidin-2-yl]amino}-5-methoxyphenyl)-2-(2-methoxyethoxy) acetamide], the IC50 is 5 to 50 nM at IKKε and ≤ 10 nM with DU4475 cells.
